Assay results published in PubChem BioAssay AID1195 (EPA DSSTox, 2008).

Tested on: human maximum recommended daily dose, FDA database
Assay: DSSTox (FDAMDD) FDA Maximum (Recommended) Daily Dose Database
Details: stronger effect = lower value
Summary of the method: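 MRDD values come from clinical trials with daily oral dosing, usually for 3–12 months, for the average adult, in mg/day converted to mg/kg-bw/day assuming 60 kg. Antineoplastic mg/m2 doses are divided by 37. Activity score maps log10(1/MRDD mmol) onto 1–100.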

[1] = TherapeuticCategory: sedative, hypnotic
[2] = TherapeuticCategory: antihypertensive
[3] = TherapeuticCategory: antipsychotic
[4] = TherapeuticCategory: antibacterial
[5] = TherapeuticCategory: antineoplastic
[6] = TherapeuticCategory: antiemetic
[7] = TherapeuticCategory: antidepressant
[8] = TherapeuticCategory: cardiotonic
[9] = TherapeuticCategory: antidiabetic
[10] = TherapeuticCategory: progestogen

## NS(=O)(=O)c1cc(C(=O)O)cc(N2CCCC2)c1Oc1ccccc1
TherapeuticCategory: diuretic
  maximum recommended daily dose (mmol/kg-bw/day): 0.000552

## C=CCC1(C(C)CC)C(=O)NC(=O)NC1=O (centres undefined)
[1]
  maximum recommended daily dose (mmol/kg-bw/day): 0.0148

## CCC(=O)Oc1ccc2c(c1)CC[C@@H]1[C@@H]2CC[C@]2(C)[C@@H](OC(=O)CC)CC[C@@H]12
TherapeuticCategory: estrogen
  maximum recommended daily dose (mmol/kg-bw/day): 0.0013

## Cc1cccc(C)c1NC(=O)C1CCCCN1C (centres undefined)
TherapeuticCategory: local anesthetic
  maximum recommended daily dose (mmol/kg-bw/day): 0.0271

## CCCCC1=NC2(CCCC2)C(=O)N1Cc1ccc(-c2ccccc2-c2nn[nH]n2)cc1
[2]
  maximum recommended daily dose (mmol/kg-bw/day): 0.0117

## CCC(=O)c1ccc2c(c1)N(CCCN1CCN(CCO)CC1)c1ccccc1S2
[3]
  maximum recommended daily dose (mmol/kg-bw/day): 0.0157

## CC1=C(/C=C/C(C)=C/C=C/C(C)=C/C=C/C=C(C)/C=C/C=C(C)/C=C/C2=C(C)CCCC2(C)C)C(C)(C)CCC1
TherapeuticCategory: vitamin A precursor, UV screen
  maximum recommended daily dose (mmol/kg-bw/day): 9.31e-05

## CC1=C(C(=O)O)N2C(=O)[C@@H](NC(=O)[C@H](N)c3ccccc3)[C@H]2SC1
[4]
  maximum recommended daily dose (mmol/kg-bw/day): 0.192

## CC(C)[N+](C)(CCOC(=O)C1c2ccccc2Oc2ccccc21)C(C)C
TherapeuticCategory: anticholinergic
  maximum recommended daily dose (mmol/kg-bw/day): 0.00279

## CCCCc1nc(Cl)c(CO)n1Cc1ccc(-c2ccccc2-c2nn[nH]n2)cc1
[2]
  maximum recommended daily dose (mmol/kg-bw/day): 0.00395

## CO[C@H](C(=O)[C@@H](O)[C@@H](C)O)C1Cc2cc3cc(O[C@H]4C[C@@H](O[C@H]5C[C@@H](O)[C@H](O)[C@@H](C)O5)[C@@H](O)[C@@H](C)O4)c(C)c(O)c3c(O)c2C(=O)[C@H]1O[C@H]1C[C@@H](O[C@H]2C[C@@H](O[C@H]3C[C@](C)(O)[C@H](O)[C@@H](C)O3)[C@H](O)[C@@H](C)O2)[C@H](O)[C@@H](C)O1 (some centres undefined)
[5]
  maximum recommended daily dose (mmol/kg-bw/day): 2.76e-05

## C[C@]12COC(=O)C[C@@H]1CC[C@@H]1[C@@H]2CC[C@@]2(C)[C@H]1CC[C@]2(C)O
TherapeuticCategory: androgen
  maximum recommended daily dose (mmol/kg-bw/day): 0.00109

## CCCCC1C(=O)NN(c2ccccc2)C1=O (centres undefined)
TherapeuticCategory: anti inflammatory
  maximum recommended daily dose (mmol/kg-bw/day): 0.0215

## CN1CCN(CCCN2c3ccccc3Sc3ccc(Cl)cc32)CC1
[6]
  maximum recommended daily dose (mmol/kg-bw/day): 0.00447

## Clc1ccc2c(c1)C(N1CCNCC1)=Nc1ccccc1O2
[7]
  maximum recommended daily dose (mmol/kg-bw/day): 0.0319

## C[C@H]1O[C@@H](O[C@H]2CC[C@@]3(C)[C@H](CC[C@@H]4[C@@H]3C[C@@H](O)[C@]3(C)[C@@H](C5=CC(=O)OC5)CC[C@]43O)C2)C[C@H](O)[C@@H]1O[C@H]1C[C@H](O)[C@H](O[C@H]2C[C@H](O)[C@H](O[C@@H]3O[C@H](CO)[C@@H](O)[C@H](O)[C@H]3O)[C@@H](C)O2)[C@@H](C)O1
[8]
  maximum recommended daily dose (mmol/kg-bw/day): 8.48e-08

## COCCOc1cnc(NS(=O)(=O)c2ccccc2)nc1
[9]
  maximum recommended daily dose (mmol/kg-bw/day): 0.108

## CN1CCN(C(c2ccccc2)c2ccccc2)CC1
[6]
  maximum recommended daily dose (mmol/kg-bw/day): 0.0125

## CN(C)CC/C=C1\c2ccccc2Sc2ccc(Cl)cc21
[3]
  maximum recommended daily dose (mmol/kg-bw/day): 0.0105

## CCOC(=O)[C@H](CCc1ccccc1)N[C@H]1CCc2ccccc2N(CC(=O)O)C1=O
TherapeuticCategory: antihypertensive, ACE inhibitor
  maximum recommended daily dose (mmol/kg-bw/day): 0.00313

## CC(CC1c2ccccc2CCc2ccccc21)CN(C)C (centres undefined)
[7]
  maximum recommended daily dose (mmol/kg-bw/day): 0.00852

## NS(=O)(=O)c1cc2c(cc1Cl)NC(C(Cl)Cl)NS2(=O)=O (centres undefined)
TherapeuticCategory: diuretic, antihypertensive
  maximum recommended daily dose (mmol/kg-bw/day): 0.000175

## NC(=O)OCC(COC(N)=O)c1ccccc1
TherapeuticCategory: anticonvulsant
  maximum recommended daily dose (mmol/kg-bw/day): 0.252

## CC1(C)S[C@@H]2[C@H](NC(=O)[C@H](C(=O)O)c3ccsc3)C(=O)N2[C@H]1C(=O)O
[4]
  maximum recommended daily dose (mmol/kg-bw/day): 0.78

## CCN(CC)C(C)C(=O)c1ccccc1 (centres undefined)
TherapeuticCategory: anorexic
  maximum recommended daily dose (mmol/kg-bw/day): 0.00609

## CCn1cc(C(=O)O)c(=O)c2cc(F)c(N3CCNCC3)nc21
[4]
  maximum recommended daily dose (mmol/kg-bw/day): 0.0624

## CC[N+](CC)(CCNC(=O)C(=O)NCC[N+](CC)(CC)Cc1ccccc1Cl)Cc1ccccc1Cl
TherapeuticCategory: cholinesterase inhibitor
  maximum recommended daily dose (mmol/kg-bw/day): 0.00274

## CCN(CC)CCN1C(=O)CN=C(c2ccccc2F)c2cc(Cl)ccc21
[1]
  maximum recommended daily dose (mmol/kg-bw/day): 0.00129

## CC[C@]1(O)C[C@H]2CN(CCc3c([nH]c4ccccc34)[C@@](C(=O)OC)(c3cc4c(cc3OC)N(C)[C@H]3[C@@](O)(C(N)=O)[C@H](O)[C@]5(CC)C=CCN6CC[C@]43[C@@H]65)C2)C1
[5]
  maximum recommended daily dose (mmol/kg-bw/day): 0.000143

## CC(S)C(=O)NCC(=O)O (centres undefined)
TherapeuticCategory: hepatoprotectant, mucolytic, antidote to heavy metal poisoning
  maximum recommended daily dose (mmol/kg-bw/day): 0.204

## CN(C)CCC(c1ccc(Cl)cc1)c1ccccn1 (centres undefined)
TherapeuticCategory: antihistaminic
  maximum recommended daily dose (mmol/kg-bw/day): 0.000484

## CCc1nn(CCCN2CCN(c3cccc(Cl)c3)CC2)c(=O)n1CCOc1ccccc1
TherapeuticCategory: antidepressant, seratonin receptor antagonist
  maximum recommended daily dose (mmol/kg-bw/day): 0.0213

## Cc1ccccc1C(OCCN(C)C)c1ccccc1 (centres undefined)
TherapeuticCategory: skeletal muscle relaxant, antihistiminic
  maximum recommended daily dose (mmol/kg-bw/day): 0.0248

## N[C@@H]1[C@@H](O)[C@@H](O[C@@H]2[C@@H](O)[C@H](O[C@H]3O[C@H](CO)[C@@H](O)[C@H](O)[C@H]3N)[C@@H](N)C[C@H]2N)O[C@H](CO)[C@H]1O
[4]
  maximum recommended daily dose (mmol/kg-bw/day): 0.031

## CC1=NS(=O)(=O)c2cc(Cl)ccc2N1
[2]
  maximum recommended daily dose (mmol/kg-bw/day): 0.0347

## CC(I)C1OCC(CO)O1 (centres undefined)
TherapeuticCategory: expectorant
  maximum recommended daily dose (mmol/kg-bw/day): 0.0155

## CCCOC(=O)c1ccc(O)cc1
TherapeuticCategory: pharmaceutic aid
  maximum recommended daily dose (mmol/kg-bw/day): 0.0555

## Clc1ccc2nsnc2c1NC1=NCCN1
TherapeuticCategory: skeletal muscle relaxant
  maximum recommended daily dose (mmol/kg-bw/day): 0.00236

## O=P1(N(CCCl)CCCl)NCCCO1 (centres undefined)
[5]
  maximum recommended daily dose (mmol/kg-bw/day): 0.0192

## CCCCNC(=O)NS(=O)(=O)c1ccc(N)cc1
[9]
  maximum recommended daily dose (mmol/kg-bw/day): 0.0615

## Cc1[nH]c(=O)c(C#N)cc1-c1ccncc1
[8]
  maximum recommended daily dose (mmol/kg-bw/day): 0.000237

## CC(C)(C)NCC(O)COc1cccc2c1CCC(=O)N2 (centres undefined)
TherapeuticCategory: antihypertensive, antianginal, antiarrhythmic, antiglaucomic
  maximum recommended daily dose (mmol/kg-bw/day): 0.000571

## CCCCCCC(=O)O[C@H]1CC[C@H]2[C@@H]3CCc4cc(O)ccc4[C@H]3CC[C@]12C
TherapeuticCategory: estrogen
  maximum recommended daily dose (mmol/kg-bw/day): 0.0013

## OC(CCN1CCCCC1)(c1ccccc1)C1CCCCC1 (centres undefined)
TherapeuticCategory: anticholinergic, antiparkinsonian
  maximum recommended daily dose (mmol/kg-bw/day): 0.000829

## CC(=O)Oc1cc(C(C)C)c(OCCN(C)C)cc1C
TherapeuticCategory: vasodilator
  maximum recommended daily dose (mmol/kg-bw/day): 0.0191

## C#C[C@]1(OC(C)=O)CC[C@H]2[C@@H]3CCC4=C[C@@H](OC(C)=O)CC[C@@H]4[C@H]3CC[C@@]21C
[10]
  maximum recommended daily dose (mmol/kg-bw/day): 4.34e-05

## O=C(Cc1cccs1)N[C@@H]1C(=O)N2C(C(=O)[O-])=C(C[n+]3ccccc3)CS[C@H]12
[4]
  maximum recommended daily dose (mmol/kg-bw/day): 0.161

## C[C@]1(O)CC[C@H]2[C@@H]3CCC4=CC(=O)CC[C@@H]4[C@H]3CC[C@@]21C
TherapeuticCategory: androgen
  maximum recommended daily dose (mmol/kg-bw/day): 0.00173

## NC[C@H]1O[C@H](O[C@H]2[C@H](O)[C@@H](O[C@H]3O[C@H](CO)[C@@H](O)[C@H](N)[C@H]3O)[C@H](N)C[C@@H]2N)[C@H](N)[C@@H](O)[C@@H]1O
[4]
  maximum recommended daily dose (mmol/kg-bw/day): 0.031

## NNc1nnc(NN)c2ccccc12
[2]
  maximum recommended daily dose (mmol/kg-bw/day): 0.0175

## OCCN(CCO)CCO
TherapeuticCategory: analgesic
  maximum recommended daily dose (mmol/kg-bw/day): 0.067

## COc1cccc([C@@]2(O)CCCC[C@@H]2CN(C)C)c1
TherapeuticCategory: analgesic
  maximum recommended daily dose (mmol/kg-bw/day): 0.0253

## C[C@H](CN1CCOCC1)C(C(=O)N1CCCC1)(c1ccccc1)c1ccccc1
TherapeuticCategory: narcotic analgesic
  maximum recommended daily dose (mmol/kg-bw/day): 0.000848

## CN1CCN(CCC=C2c3ccccc3Sc3ccc(S(=O)(=O)N(C)C)cc32)CC1
TherapeuticCategory: antipsychotic, dopamine receptor antagonist
  maximum recommended daily dose (mmol/kg-bw/day): 0.00113

## CCC[C@@H]1C[C@@H](C(=O)N[C@@H]([C@H]2O[C@H](SC)[C@H](O)[C@@H](O)[C@H]2O)[C@@H](C)O)N(C)C1
[4]
  maximum recommended daily dose (mmol/kg-bw/day): 0.0819

## CC1(C)S[C@@H]2[C@H](NC(=O)[C@H](N)c3ccccc3)C(=O)N2[C@H]1C(=O)O
[4]
  maximum recommended daily dose (mmol/kg-bw/day): 0.167

## OC[C@@H](O)[C@@H](O)[C@H](O)[C@H](O)CO
TherapeuticCategory: diuretic, diagnostic aid
  maximum recommended daily dose (mmol/kg-bw/day): 5.48

## C#C[C@]1(O)CC[C@H]2[C@@H]3CCC4=C[C@@H](O)CC[C@@H]4[C@H]3CC[C@@]21C
[10]
  maximum recommended daily dose (mmol/kg-bw/day): 5.56e-05

## CC(=O)N[C@H]1[C@H]([C@H](O)[C@H](O)CO)OC(C(=O)O)=C[C@@H]1N=C(N)N
TherapeuticCategory: neuraminidase inhibitors
  maximum recommended daily dose (mmol/kg-bw/day): 0.001
